The values below come from patent US11572362B2, “Pyrrolo[1,2-b]pyridazine derivatives” (Gilead Sciences, Inc., priority 2018, dated 2023).

pEC50, pIC50: −log10 of the molar value. Bounds are passed on as bounds.

Assay [1] relates to TNFα. In words: IRAK4 Monocyte TNFα Cell Based Assay. The note with it: Monocyte; cryopreserved human monocytes, 50 pg/ml LPS, compound 1 hour pre-treatment, 4 hours stimulation, TNFα by TR-FRET. Here is the method:
IRAK4 Monocyte TNFα Cell Based Assay Procedure:
The cell suspension was then plated at a density of 5,000 cells/well onto black 384 well Greiner clear bottom plates. Plates were pre-spotted with test compounds and serially diluted in DMSO where 40 nL/well were delivered using the Echo 550 acoustic liquid dispenser (Labcyte®) for a final DMSO concentration of 0.1%. Plated cells were treated with compound for 1 hour at 37° C. Cells were then stimulated with 50 pg/ml of LPS (Sigma) excluding outside columns of plate used for unstimulated cell control wells. Cells were incubated for an additional 4 hours at 37° C. Cells were then spun out of the media and 5 μl of sample were taken and analyzed for total TNFα content using the TR-FRET Human TNFα detection system (CisBio). This system utilizes two labeled antibodies (cryptate and XL665) that bind to two different epitopes of the TNFα molecule and produce FRET signal proportional to the concentration of TNFα in the sample. Detection antibodies are mixed 50:50 and 5 μL were dispensed into each well. Plates were covered with clear seals and incubated at room temp overnight. The following morning plates were read using an Envision 2103 Multilabeled reader (PerkinElmer) with excitation/emission/FRET emission at 340 nm/615 nm/665 nm, respectively. Fluorescence intensities at 615 nm and 665 nm emission wavelengths were expressed as a ratio (665 nm/615 nm). Percent of control was calculated as follows: % Control=100×(RatioSample−Ratio0% Stimulation)/(Ratio100% Stimulation−Ratio0% Stimulation)
where unstimulated cells (0% stimulation) were the negative control and stimulated cells (100% stimulation) were used as the positive control.
A general note: Time-resolved FRET reads energy transfer from a long-lived donor to a nearby acceptor.

Assay [2] deals with IRAK4 (Homo sapiens (Human), UniProt Q9NWZ3). In words: IRAK4 Biochemical Assay (TR-FRET/HTRF). The following applies: IRAK4 enzyme 0.75 nM, 500 μM ATP, 2 μM STK1 peptide, 120 min. Here is the method:
IRAK4 Biochemical Assay Procedure:
IRAK4 enzyme (Carna Biosciences, Chuo-ku, Kobe, Japan) activity was measured by detecting phosphorylated peptide substrate formation using an antibody against the phosphorylated peptide substrate. This is a time-resolved fluorescence resonance energy transfer (TR-FRET) immunoassay, based on the STK1 KinEASE Assay (Cisbio, Bedford, Mass.). The assay was designed as a simple two-step, endpoint assay (a 5 μl enzyme reaction followed by 5 μl stop and detect Solution) performed in ProxiPlate-384 Plus plates (Perkin Elmer, Waltham, Mass.). Staurosporine, a non-selective kinase inhibitor was used as a positive control. Compounds diluted in DMSO were spotted into 384 well plates using a Labcyte® Echo 550 Liquid Handling System prior to addition of IRAK4 enzyme and peptide substrate. Reaction solutions were delivered using a Multi-Flo (Bio-Tek Instruments). The enzyme and peptide solution was incubated with compound for 15 minutes at room temp before the reaction was initiated by the addition of ATP. The standard 5 μl reaction mixture contained 500 μM ATP, 2 μM peptide (STK1 Peptide), 0.75 nM of IRAK4 in reaction buffer (50 mM HEPES, pH 7.0, 0.02% NaN3, 0.01% BSA, 0.1 mM Orthovanadate, 5 mM MgCl2, 0.025% NP-40, 1 mM DTT). After 120 min of incubation at room temperature, 5 μl of Stop and Detect Solution (1:100 Cryptate labeled anti-phosphorylated peptide antibody solution and 125 nM Tracer in a 50 mM HEPES pH 7.0 detection buffer containing sufficient EDTA) was added. The plate was then further incubated for 60 minutes at room temperature and read on Envision 2103 Multilabeled reader (PerkinElmer) with excitation/emission/FRET emission at 340 nm/615 nm/665 nm, respectively. Fluorescence intensities at 615 nm and 665 nm emission wavelengths were expressed as a ratio (665 nm/615 nm). Percentage of inhibition was calculated as below: % Inhibition=100×(RatioSample−Ratio0% Inhibition)/(Ratio100% Inhibition−Ratio0% Inhibition)
The 0% inhibition value comes from control wells lacking inhibitor. The 100% inhibition value comes from control wells containing a saturating amount of known inhibitor staurosporine.

Sequence of IRAK4 (Q9NWZ3 whole entry): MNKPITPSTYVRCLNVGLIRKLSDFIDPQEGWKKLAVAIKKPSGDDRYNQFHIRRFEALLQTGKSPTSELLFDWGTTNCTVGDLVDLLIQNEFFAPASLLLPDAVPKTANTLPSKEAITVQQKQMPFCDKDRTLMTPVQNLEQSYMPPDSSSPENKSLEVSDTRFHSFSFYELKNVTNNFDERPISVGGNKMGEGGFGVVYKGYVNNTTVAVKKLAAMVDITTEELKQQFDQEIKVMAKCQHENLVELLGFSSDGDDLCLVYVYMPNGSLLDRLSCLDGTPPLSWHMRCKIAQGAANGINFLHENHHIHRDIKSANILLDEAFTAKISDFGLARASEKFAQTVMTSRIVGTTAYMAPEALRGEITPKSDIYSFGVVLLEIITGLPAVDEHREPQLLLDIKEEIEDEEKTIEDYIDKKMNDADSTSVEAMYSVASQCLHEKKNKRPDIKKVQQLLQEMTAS

With `CC(C)(O)[C@H](F)CNC(=O)c1cnc(-c2ccc3cc(C#N)cnn23)cc1N[C@H]1CC[C@H](n2cc(C(F)(F)F)cn2)CC1` [Compound 30, 6-(3-cyanopyrrolo[1,2-b]pyridazin-7-yl)-N-((R)-2-fluoro-3-hydroxy-3-methylbutyl)-4-(((1r,4R)-4-(4-(trifluoromethyl)-1H-pyrazol-1-yl)cyclohexyl)amino)nicotinamide], the pEC50 in assay [1] is 6.87. The same compound showed a pIC50 in assay [2] of 8.40.
The like results for `CC(C)(O)[C@H](F)CNC(=O)c1cnc(-c2ccc3cc(C#N)cnn23)cc1N[C@H]1CC[C@H](n2ccnn2)CC1` [Compound 31, 4-(((1r,4R)-4-(1H-1,2,3-triazol-1-yl)cyclohexyl)amino)-6-(3-cyanopyrrolo[1,2-b]pyridazin-7-yl)-N-((R)-2-fluoro-3-hydroxy-3-methylbutyl)nicotinamide] were, in that order, 7.40 and 9.00.
Consider `CC(C)(O)[C@H](F)CNC(=O)c1cnc(-c2ccc3cc(C#N)cnn23)cc1N[C@H]1CC[C@H](n2cc(C3CC3)nn2)CC1` [Compound 32, 6-(3-cyanopyrrolo[1,2-b]pyridazin-7-yl)-4-(((1r,4R)-4-(4-cyclopropyl-1H-1,2,3-triazol-1-yl)cyclohexyl)amino)-N-((R)-2-fluoro-3-hydroxy-3-methylbutyl)nicotinamide], for which the pEC50 in assay [1] is 7.20. Besides, the negative logarithm of the IC50 (pIC50) in assay [2] was 9.00.
As to `CC(C)(O)[C@H](F)CNC(=O)c1cnc(-c2ccc3cc(C#N)cnn23)cc1N[C@H]1CC[C@H](n2cc(C3COC3)nn2)CC1` [Compound 33, 6-(3-cyanopyrrolo[1,2-b]pyridazin-7-yl)-N-((R)-2-fluoro-3-hydroxy-3-methylbutyl)-4-(((1r,4R)-4-(4-(oxetan-3-yl)-1H-1,2,3-triazol-1-yl)cyclohexyl)amino)nicotinamide], the pEC50 in assay [1] was 6.70. In assay [2], the pIC50 is 9.00.
In the case of `CC(C)(O)[C@H](F)CNC(=O)c1cnc(-c2ccc3cc(C#N)cnn23)cc1N[C@H]1CC[C@H](n2cc(C(N)=O)nn2)CC1` [Compound 34, 4-(((1r,4R)-4-(4-carbamoyl-1H-1,2,3-triazol-1-yl)cyclohexyl)amino)-6-(3-cyanopyrrolo[1,2-b]pyridazin-7-yl)-N-((R)-2-fluoro-3-hydroxy-3-methylbutyl)nicotinamide], in assay [1], the pEC50 was 7.37. The pIC50 in assay [2] is over 9.00.
On to `CC(C)(O)[C@H](F)CNC(=O)c1cnc(-c2ccc3cc(C#N)cnn23)cc1N[C@H]1CC[C@H](n2cc(C(F)F)nn2)CC1` [Compound 35, 6-(3-cyanopyrrolo[1,2-b]pyridazin-7-yl)-4-(((1r,4R)-4-(4-(difluoromethyl)-1H-1,2,3-triazol-1-yl)cyclohexyl)amino)-N-((R)-2-fluoro-3-hydroxy-3-methylbutyl)nicotinamide], for which, in assay [1], the pEC50 was 7.80. The compound also gave a pIC50 in assay [2] of over 9.00.
The like results for `CC(C)(O)[C@H](F)CNC(=O)c1cnc(-c2ccc3cc(C#N)cnn23)cc1N[C@H]1CC[C@H](n2cnc(C(F)F)n2)CC1` [Compound 36, 6-(3-cyanopyrrolo[1,2-b]pyridazin-7-yl)-4-(((1r,4R)-4-(3-(difluoromethyl)-1H-1,2,4-triazol-1-yl)cyclohexyl)amino)-N-((R)-2-fluoro-3-hydroxy-3-methylbutyl)nicotinamide] were, in that order, 7.85 and over 9.00.
As for `CC(C)(O)[C@H](F)CNC(=O)c1cnc(-c2ccc3cc(C#N)cnn23)cc1N[C@H]1CC[C@H](n2cnnc2C(F)F)CC1` [Compound 37, 6-(3-cyanopyrrolo[1,2-b]pyridazin-7-yl)-4-(((1r,4R)-4-(3-(difluoromethyl)-4H-1,2,4-triazol-4-yl)cyclohexyl)amino)-N-((R)-2-fluoro-3-hydroxy-3-methylbutyl)nicotinamide], in assay [1], the pEC50 was 7.40. This compound also had a pIC50 in assay [2] of 9.00.
The like results for `CC(C)(O)[C@H](F)CNC(=O)c1cnc(-c2ccc3cc(C#N)cnn23)cc1N[C@H]1CC[C@H](n2cnnn2)CC1` [Compound 38, 4-(((1r,4R)-4-(1H-tetrazol-1-yl)cyclohexyl)amino)-6-(3-cyanopyrrolo[1,2-b]pyridazin-7-yl)-N-((R)-2-fluoro-3-hydroxy-3-methylbutyl)nicotinamide] were, in that order, 7.62 and over 9.00.
Turning to `Cc1nnc([C@H]2CC[C@H](Nc3cc(-c4ccc5cc(C#N)cnn45)ncc3C(=O)NC[C@@H](F)C(C)(C)O)CC2)o1` [Compound 39, 6-(3-cyanopyrrolo[1,2-b]pyridazin-7-yl)-N-((R)-2-fluoro-3-hydroxy-3-methylbutyl)-4-(((1r,4R)-4-(5-methyl-1,3,4-oxadiazol-2-yl)cyclohexyl)amino)nicotinamide], the pEC50 in assay [1] is 7.48. In addition, the pIC50 in assay [2] was over 9.00.
For `COCc1nnc([C@H]2CC[C@H](Nc3cc(-c4ccc5cc(C#N)cnn45)ncc3C(=O)NC[C@@H](F)C(C)(C)O)CC2)o1` [Compound 40, 6-(3-cyanopyrrolo[1,2-b]pyridazin-7-yl)-N-((R)-2-fluoro-3-hydroxy-3-methylbutyl)-4-(((1r,4R)-4-(5-(methoxymethyl)-1,3,4-oxadiazol-2-yl)cyclohexyl)amino)nicotinamide], the negative-log EC50 (pEC50) in assay [1] was 7.18. In assay [2], this compound showed a pIC50 of 9.00.
`CC(C)(O)[C@H](F)CNC(=O)c1cnc(-c2ccc3cc(C#N)cnn23)cc1N[C@H]1CC[C@H](c2nnc(C3CC3)o2)CC1` [Compound 41, 6-(3-cyanopyrrolo[1,2-b]pyridazin-7-yl)-4-(((1r,4R)-4-(5-cyclopropyl-1,3,4-oxadiazol-2-yl)cyclohexyl)amino)-N-((R)-2-fluoro-3-hydroxy-3-methylbutyl)nicotinamide]: the negative logarithm of the EC50 (pEC50) in assay [1] was 7.42. For the same compound, the negative-log IC50 (pIC50) in assay [2] is over 9.00.
`CC(C)(O)[C@H](F)CNC(=O)c1cnc(-c2ccc3cc(C#N)cnn23)cc1N[C@H]1CC[C@H](c2nnc(C(F)F)o2)CC1` [Compound 42, 6-(3-cyanopyrrolo[1,2-b]pyridazin-7-yl)-4-(((1r,4R)-4-(5-(difluoromethyl)-1,3,4-oxadiazol-2-yl)cyclohexyl)amino)-N-((R)-2-fluoro-3-hydroxy-3-methylbutyl)nicotinamide]: in assay [1], the pEC50 is 7.62. In assay [2], this compound showed a pIC50 of over 9.00.
For `CC(C)(O)[C@H](F)CNC(=O)c1cnc(-c2ccc3cc(C#N)cnn23)cc1NC1CCC(F)(c2nnc(C(F)F)o2)CC1` (stereo partly drawn) [Compound 43, (R)-6-(3-cyanopyrrolo[1,2-b]pyridazin-7-yl)-4-((4-(5-(difluoromethyl)-1,3,4-oxadiazol-2-yl)-4-fluorocyclohexyl)amino)-N-(2-fluoro-3-hydroxy-3-methylbutyl)nicotinamide], the pEC50 in assay [1] was 7.41. Further, the pIC50 in assay [2] is over 9.00.
Regarding `Cc1nc([C@H]2CC[C@H](Nc3cc(-c4ccc5cc(C#N)cnn45)ncc3C(=O)NC[C@@H](F)C(C)(C)O)CC2)no1` [Compound 44, 6-(3-cyanopyrrolo[1,2-b]pyridazin-7-yl)-N-((R)-2-fluoro-3-hydroxy-3-methylbutyl)-4-(((1r,4R)-4-(5-methyl-1,2,4-oxadiazol-3-yl)cyclohexyl)amino)nicotinamide], in assay [1], the pEC50 was 7.55. In assay [2], this compound showed a pIC50 of over 9.00.
The like results for `Cc1noc([C@H]2CC[C@H](Nc3cc(-c4ccc5cc(C#N)cnn45)ncc3C(=O)NC[C@@H](F)C(C)(C)O)CC2)n1` [Compound 45, 6-(3-cyanopyrrolo[1,2-b]pyridazin-7-yl)-N-((R)-2-fluoro-3-hydroxy-3-methylbutyl)-4-(((1r,4R)-4-(3-methyl-1,2,4-oxadiazol-5-yl)cyclohexyl)amino)nicotinamide] were, in that order, 7.07 and 8.70.

For orientation: pEC50 means the EC50 on a negative log10 scale, so that one unit is a factor of ten. As usually defined, the pIC50 is −log10 of the IC50, conventionally taken in molar units. Lower therefore signals a high IC50.
